According to patent publication US9670142B2, “1,3-diaminocyclopentane carboxamide derivatives” (Merck Patent GmbH, priority 2013, dated 2017):

Molecular target: human fatty acid synthase FASN (Homo sapiens (Human), UniProt P49327)
Assay: Biochemical activity testing of human fatty acid synthase FASN (NADPH fluorescence intensity enzyme assay)
Settings: human recombinant full-length fatty acid synthase
Procedure, shortened: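 In-house Sf9-expressed full-length enzyme (3 μL of 40 nM) in 50 mM potassium phosphate pH 7.0 with glutathione, BSA and Tween-20, plus NADPH (2 μL of 200 μM), preincubated ≥15 min with compound (10 concentrations from 30 μM final, 1% DMSO). Acetyl-CoA/malonyl-CoA added; NADPH fluorescence (ex 340/em 460 nm) read before and after 30 min at room temperature, difference used for IC50.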

Chain of human fatty acid synthase FASN (P49327 whole entry): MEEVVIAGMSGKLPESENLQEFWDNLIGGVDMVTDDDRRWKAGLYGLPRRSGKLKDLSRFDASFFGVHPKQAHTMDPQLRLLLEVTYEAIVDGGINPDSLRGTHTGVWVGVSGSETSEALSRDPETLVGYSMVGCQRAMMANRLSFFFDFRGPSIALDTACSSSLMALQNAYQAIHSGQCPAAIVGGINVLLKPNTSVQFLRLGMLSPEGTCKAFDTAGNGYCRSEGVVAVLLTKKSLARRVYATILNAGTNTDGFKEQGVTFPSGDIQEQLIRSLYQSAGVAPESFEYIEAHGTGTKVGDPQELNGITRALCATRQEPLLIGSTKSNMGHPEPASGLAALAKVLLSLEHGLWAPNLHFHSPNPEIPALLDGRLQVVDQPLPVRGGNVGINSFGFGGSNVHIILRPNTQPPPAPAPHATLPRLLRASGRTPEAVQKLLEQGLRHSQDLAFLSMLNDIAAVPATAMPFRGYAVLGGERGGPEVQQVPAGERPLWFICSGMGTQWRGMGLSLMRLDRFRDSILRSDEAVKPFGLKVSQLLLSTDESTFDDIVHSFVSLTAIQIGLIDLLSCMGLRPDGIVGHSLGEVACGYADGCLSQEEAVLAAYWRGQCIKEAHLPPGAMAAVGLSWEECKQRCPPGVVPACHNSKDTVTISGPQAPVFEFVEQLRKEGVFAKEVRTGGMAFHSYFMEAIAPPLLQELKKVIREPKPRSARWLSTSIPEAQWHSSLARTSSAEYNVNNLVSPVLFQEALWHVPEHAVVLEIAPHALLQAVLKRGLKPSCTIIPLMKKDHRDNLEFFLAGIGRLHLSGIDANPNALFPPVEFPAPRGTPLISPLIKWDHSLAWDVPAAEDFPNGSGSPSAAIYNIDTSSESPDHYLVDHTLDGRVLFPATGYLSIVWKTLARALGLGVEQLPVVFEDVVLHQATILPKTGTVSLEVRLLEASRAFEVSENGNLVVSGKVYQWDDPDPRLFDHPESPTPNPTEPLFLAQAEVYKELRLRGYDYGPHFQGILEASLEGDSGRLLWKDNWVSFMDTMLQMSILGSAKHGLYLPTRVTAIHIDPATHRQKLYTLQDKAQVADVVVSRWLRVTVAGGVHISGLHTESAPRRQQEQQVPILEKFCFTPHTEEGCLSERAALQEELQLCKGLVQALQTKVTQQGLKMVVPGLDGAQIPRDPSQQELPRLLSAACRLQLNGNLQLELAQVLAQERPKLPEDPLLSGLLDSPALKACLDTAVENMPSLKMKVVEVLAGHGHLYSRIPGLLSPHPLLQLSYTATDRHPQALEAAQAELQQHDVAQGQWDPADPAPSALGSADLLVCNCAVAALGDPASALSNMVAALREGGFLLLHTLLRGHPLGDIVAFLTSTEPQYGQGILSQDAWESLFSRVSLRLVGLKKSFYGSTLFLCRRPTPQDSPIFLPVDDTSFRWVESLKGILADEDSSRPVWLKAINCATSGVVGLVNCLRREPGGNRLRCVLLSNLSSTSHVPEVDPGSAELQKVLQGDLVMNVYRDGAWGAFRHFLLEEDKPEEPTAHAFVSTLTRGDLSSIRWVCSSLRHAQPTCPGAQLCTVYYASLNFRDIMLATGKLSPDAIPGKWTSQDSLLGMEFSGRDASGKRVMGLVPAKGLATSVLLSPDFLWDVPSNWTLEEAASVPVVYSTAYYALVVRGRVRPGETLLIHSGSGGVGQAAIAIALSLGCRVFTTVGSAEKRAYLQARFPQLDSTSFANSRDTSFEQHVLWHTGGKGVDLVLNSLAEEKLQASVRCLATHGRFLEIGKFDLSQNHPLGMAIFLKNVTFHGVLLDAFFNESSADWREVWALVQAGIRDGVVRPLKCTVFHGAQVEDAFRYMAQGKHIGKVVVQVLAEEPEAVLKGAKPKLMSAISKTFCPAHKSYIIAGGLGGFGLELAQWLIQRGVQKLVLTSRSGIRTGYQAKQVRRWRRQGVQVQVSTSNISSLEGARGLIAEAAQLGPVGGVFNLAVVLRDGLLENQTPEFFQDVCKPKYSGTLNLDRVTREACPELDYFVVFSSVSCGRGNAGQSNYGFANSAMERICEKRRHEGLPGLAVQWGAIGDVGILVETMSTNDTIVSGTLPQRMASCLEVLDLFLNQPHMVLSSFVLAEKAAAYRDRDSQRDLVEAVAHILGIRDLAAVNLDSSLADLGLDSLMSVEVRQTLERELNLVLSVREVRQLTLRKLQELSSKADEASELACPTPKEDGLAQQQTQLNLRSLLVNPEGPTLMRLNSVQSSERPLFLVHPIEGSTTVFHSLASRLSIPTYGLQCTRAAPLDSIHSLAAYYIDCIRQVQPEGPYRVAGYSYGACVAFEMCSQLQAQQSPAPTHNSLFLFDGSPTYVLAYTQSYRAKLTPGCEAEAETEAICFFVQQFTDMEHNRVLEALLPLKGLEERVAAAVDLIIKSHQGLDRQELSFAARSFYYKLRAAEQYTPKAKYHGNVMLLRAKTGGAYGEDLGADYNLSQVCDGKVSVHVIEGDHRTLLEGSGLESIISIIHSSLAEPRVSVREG

| IC50 [nM] | Structure (SMILES) |
| --- | --- |
| < 300 | CCC(=O)N[C@H]1CC[C@@H](N(C)C(=O)c2ccc(-c3ccc(OC)cc3F)cc2)C1 [Compound A99, 2′-fluoro-4′-methoxy-biphenyl-4-carboxylic acid methyl-((1R,3S)-3-propionylamino-cyclopentyl)-amide] |
| 300 to 3000 | CN(C)CC(=O)N[C@H]1CC[C@@H](N(C)C(=O)c2ccc(-c3nc4ccccc4o3)cc2)C1 [Compound A36, 4-benzoxazol-2-yl-N-[(1R,3S)-3-(2-dimethylamino-acetylamino)-cyclopentyl]-N-methyl-benzamide] |
| < 300 | CCC(=O)N[C@H]1CC[C@@H](N(C)C(=O)c2ccc(-c3ccc4c(ccn4C)c3)cc2C)C1 [Compound A119, 2,N-dimethyl-4-(1-methyl-1H-indol-5-yl)-N-((1R,3S)-3-propionylamino-cyclopentyl)-benzamide] |
| < 300 | CC(C)CC(=O)N[C@H]1CC[C@@H](N(C)C(=O)c2ccc(-c3nc4ccccc4o3)cc2)C1 [Compound A35, 4-benzoxazol-2-yl-N-methyl-N-[(1R,3S)-3-(3-methyl-butyrylamino)-cyclopentyl]-benzamide] |
| < 300 | CCC(=O)N[C@H]1CC[C@@H](N(C)C(=O)c2ccc(-c3nc4ccc(F)cc4o3)cc2)C1 [Compound A127, 4-(6-fluoro-benzoxazol-2-yl)-N-methyl-N-((1R,3S)-3-propionylamino-cyclopentyl)-benzamide] |
| < 300 | CN(C(=O)c1ccc(-c2nc3cc(Cl)ccc3o2)cc1)[C@@H]1CC[C@H](NC(=O)[C@@H]2CCCO2)C1 [Compound A174] |
| < 300 | CCC(=O)N[C@H]1CC[C@@H](N(C)C(=O)c2ccc(-c3nc4ccccc4n3C)cc2)C1 [Compound A123, N-methyl-4-(1-methyl-1H-benzimidazol-2-yl)-N-((1R,3S)-3-propionylamino-cyclopentyl)-benzamide] |
| < 300 | CCC(=O)N[C@H]1CC[C@@H](N(C)C(=O)c2ccc(-c3ccc4[nH]c(=O)[nH]c4c3)cc2)C1 [Compound A93, N-methyl-4-(2-oxo-2,3-dihydro-1H-benzimidazol-5-yl)-N-((1R,3S)-3-propionylamino-cyclopentyl)-benzamide] |
| < 300 | CCC(=O)N[C@H]1CC[C@@H](N(C)C(=O)c2ccc(-c3ccc(C(=O)OC)c(F)c3)cc2)C1 [Compound A69, 3-fluoro-4′-[methyl-((1R,3S)-3-propionylamino-cyclopentyl)-carbamoyl]-biphenyl-4-carboxylic acid methyl ester] |
| < 300 | CCC(F)(F)C(=O)N[C@H]1CC[C@@H](N(C)C(=O)c2ccc(-c3nc4ccccc4o3)cc2)C1 [Compound A27, 4-benzoxazol-2-yl-N-[(1R,3S)-3-(2,2-difluoro-butyrylamino)-cyclopentyl]-N-methyl-benzamide] |
| < 300 | CCC(=O)N[C@H]1CC[C@@H](N(C)C(=O)c2ccc(-c3ccc4[nH]cc(C#N)c4c3)cc2)C1 [Compound A99a, 4-(3-cyano-1H-indol-5-yl)-N-methyl-N-((1R,3S)-3-propionylamino-cyclopentyl)-benzamide] |
| < 300 | CCC(=O)N[C@H]1CC[C@@H](N(C)C(=O)c2ccc(-c3ccc(OC(F)F)cc3)cc2)C1 [Compound A85, 4′-difluoromethoxy-biphenyl-4-carboxylic acid methyl-((1R,3S)-3-propionylamino-cyclopentyl)-amide] |
| < 300 | CCC(=O)N[C@H]1CC[C@@H](N(C)C(=O)c2ccc(-c3ccc(C(=O)O)c(C)c3)cc2)C1 [Compound A52, 3-methyl-4′-[methyl-((1R,3S)-3-propionylamino-cyclopentyl)-carbamoyl]-biphenyl-4-carboxylic acid] |
| < 300 | CCC(=O)N[C@H]1CC[C@@H](N(C)C(=O)c2cnc(-c3ccc4c(ccn4C)c3)cn2)C1 [Compound A125, 5-(1-methyl-1H-indol-5-yl)-pyrazine-2-carboxylic acid methyl-((1R,3S)-3-propionylamino-cyclopentyl)-amide] |
| < 300 | CCC(=O)N[C@H]1CC[C@@H](N(C)C(=O)c2cnc(-c3ccc4[nH]ccc4c3)c(F)c2)C1 [Compound A140, 5-fluoro-6-(1H-indol-5-yl)-N-methyl-N-((1R,3S)-3-propionylamino-cyclopentyl)-nicotinamide] |
| 300 to 3000 | CC(=O)NCCC(=O)N[C@H]1CC[C@@H](N(C)C(=O)c2ccc(-c3nc4ccccc4o3)cc2)C1 [Compound A38, N-[(1R,3S)-3-(3-acetylamino-propionylamino)-cyclopentyl]-4-benzoxazol-2-yl-N-methyl-benzamide] |
| < 300 | CCC(=O)N[C@H]1CC[C@@H](N(C)C(=O)c2ccc(-c3ccc4[nH]ccc4c3)cn2)C1 [Compound A109, 5-(1H-indol-5-yl)-pyridine-2-carboxylic acid methyl-((1R,3S)-3-propionylamino-cyclopentyl)-amide] |

| IC50 [nM] | Structure (SMILES) |
| --- | --- |
| < 300 | CCC(=O)N[C@H]1CC[C@@H](N(C)C(=O)c2ccc(-c3cc(C)c4[nH]ncc4c3)cc2)C1 [Compound A107, N-methyl-4-(7-methyl-1H-indazol-5-yl)-N-((1R,3S)-3-propionylamino-cyclopentyl)-benzamide] |
| < 300 | CN(C(=O)c1cnc(-c2nc3ccc(Cl)cc3o2)cn1)[C@@H]1CC[C@H](NC(=O)[C@@H]2CCCO2)C1 [Compound A159, 5-(6-chloro-benzoxazol-2-yl)-pyrazine-2-carboxylic acid methyl-{(1R,3S)-3-[((S)-tetrahydro-furan-2-carbonyl)-amino]-cyclopentyl}-amide] |
| < 300 | CCC(=O)N[C@H]1CC[C@@H](N(C)C(=O)c2ccc(-c3ccc4[nH]nc(C)c4c3)cn2)C1 [Compound A105, 5-(3-methyl-1H-indazol-5-yl)-pyridine-2-carboxylic acid methyl-((1R,3S)-3-propionylamino-cyclopentyl)-amide] |
| 300 to 3000 | CO[C@H](C)C(=O)N[C@H]1CC[C@@H](N(C)C(=O)c2ccc(-c3nc4ccccc4o3)cc2)C1 [Compound A32, 4-benzoxazol-2-yl-N-[(1R,3S)-3-((R)-2-methoxy-propionylamino)-cyclopentyl]-N-methyl-benzamide] |
| < 300 | CCC(C)CC(=O)N[C@H]1CC[C@@H](N(C)C(=O)c2ccc(-c3nc4ccccc4o3)cc2)C1 (stereo partly drawn) [Compound A26, 4-benzoxazol-2-yl-N-methyl-N-[(1R,3S)-3-(3-methyl-pentanoylamino)-cyclopentyl]-benzamide] |
| < 300 | CCC(=O)N[C@H]1CC[C@@H](N(C)C(=O)c2ccc(-c3ccc4cc[nH]c4c3F)nc2)C1 [Compound A157, 6-(7-fluoro-1H-indol-6-yl)-N-methyl-N-((1R,3S)-3-propionylamino-cyclopentyl)-nicotinamide] |
| < 300 | CCC(=O)N[C@H]1CC[C@@H](N(C)C(=O)c2ccc(-c3ccc4c(c3)NC(=O)C4)cc2)C1 [Compound A60, N-methyl-4-(2-oxo-2,3-dihydro-1H-indol-6-yl)-N-((1R,3S)-3-propionylamino-cyclopentyl)-benzamide] |
| 300 to 3000 | CCC(=O)N[C@H]1CC[C@@H](N(C)C(=O)c2ccc(-c3ccc(C4CCC(C)CC4)cc3F)cc2)C1 (stereo partly drawn) [Compound A54, 2′-fluoro-4′-(4-methyl-cyclohexyl)-biphenyl-4-carboxylic acid methyl-((1R,3S)-3-propionylamino-cyclopentyl)-amide] |
| < 300 | CCC(=O)N[C@H]1CC[C@@H](N(C)C(=O)c2ccc(-c3ccc(OC)cc3OC)cc2)C1 [Compound A88, 2′,4′-dimethoxy-biphenyl-4-carboxylic acid methyl-((1R,3S)-3-propionylamino-cyclopentyl)-amide] |
| 300 to 3000 | COC(=O)[C@H](CC(=O)N[C@H]1CC[C@@H](N(C)C(=O)c2ccc(-c3nc4ccccc4o3)cc2)C1)NC(C)=O [Compound A39, (S)-2-acetylamino-N-{(1S,3R)-3-[(4-benzoxazol-2-yl-benzoyl)-methyl-amino]-cyclopentyl}-succinamic acid methyl ester] |
| < 300 | CCC(=O)N[C@H]1CC[C@@H](N(C)C(=O)c2ccc(-c3ccc(C(N)=O)cc3)cc2)C1 [Compound A57, biphenyl-4,4′-dicarboxylic acid 4′-amide 4-[methyl-((1R,3S)-3-propionylamino-cyclopentyl)-amide]] |
| < 300 | CCC(=O)N[C@H]1CC[C@@H](N(C)C(=O)c2ccc(-c3ccc4ncsc4c3)cc2)C1 [Compound A59, 4-benzothiazol-6-yl-N-methyl-N-((1R,3S)-3-propionylamino-cyclopentyl)-benzamide] |
| < 300 | CC(C)C(=O)N[C@H]1CC[C@@H](N(C)C(=O)c2ccc(-c3nc4ccccc4o3)cc2)C1 [Compound A17, 4-benzoxazol-2-yl-N-((1R,3S)-3-isobutyrylamino-cyclopentyl)-N-methyl-benzamide] |
| 3000 to 50000 | CCC(=O)N[C@H]1CC[C@@H](N(C)C(=O)c2ccc(-c3ccc(C(C)(C)C)cc3)cc2)C1 [Compound A55, tert-butyl-biphenyl-4-carboxylic acid methyl-((1R,3S)-3-propionylamino-cyclopentyl)-amide] |
| < 300 | CCC(=O)N[C@H]1CC[C@@H](N(C)C(=O)c2ccc(-c3ccc4[nH]cc(C)c4c3)cc2)C1 [Compound A115, N-methyl-4-(3-methyl-1H-indol-5-yl)-N-((1R,3S)-3-propionylamino-cyclopentyl)-benzamide] |
| 3000 to 50000 | CN(C(=O)c1ccc(-c2nc3ccccc3o2)cc1)[C@@H]1CC[C@@H](NC(=O)Cc2ccccc2)C1 [Compound A167, 4-benzoxazol-2-yl-N-methyl-N-((1R,3R)-3-phenylacetylamino-cyclopentyl)-benzamide] |
| < 300 | CCC(=O)N[C@H]1CC[C@@H](N(C)C(=O)c2ccc(-c3cc(F)c4[nH]ccc4c3)cc2)C1 [Compound A121, 4-(7-fluoro-1H-indol-5-yl)-N-methyl-N-((1R,3S)-3-propionylamino-cyclopentyl)-benzamide] |
